The values below come from the supplement of paper PMC10307832.

What all share (experiment): relative viability (nuclei count vs DMSO), 5 days (fraction); higher = more cells survive
Compound in the test “VE-821 + Phenformin”: CS(=O)(=O)c1ccc(-c2cnc(N)c(C(=O)Nc3ccccc3)n2)cc1 [VE-821] + N=C(N)NC(=N)NCCc1ccccc1 [Phenformin] (partner 250 µM)
The method, boiled down:
(§1)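 Relative viability was taken as the ratio of nuclei in treated wells to nuclei in vehicle wells. Lung cancer cell lines in 1536-well plates received compounds by pin tool one day after seeding, either one drug alone or a fixed anchor-drug dose plus five library-drug doses (not always all listed) in √10 steps. Nuclei were counted on 4× images after 5 days of treatment, and values are medians of duplicate plates.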

Compound in the test “VE-821 + Crizotinib”: CS(=O)(=O)c1ccc(-c2cnc(N)c(C(=O)Nc3ccccc3)n2)cc1 [VE-821] + C[C@@H](Oc1cc(-c2cnn(C3CCNCC3)c2)cnc1N)c1c(Cl)ccc(F)c1Cl [Crizotinib] (partner 1 µM)
The method, boiled down:
as §1

Compound in the test “Vismodegib + Dasatinib”: CS(=O)(=O)c1ccc(C(=O)Nc2ccc(Cl)c(-c3ccccn3)c2)c(Cl)c1 [Vismodegib] + Cc1nc(Nc2ncc(C(=O)Nc3c(C)cccc3Cl)s2)cc(N2CCN(CCO)CC2)n1 [Dasatinib] (partner 0.075 µM)
The method, boiled down: as §1

Compound in the test “Ruxolitinib + Bortezomib”: N#CC[C@H](C1CCCC1)n1cc(-c2ncnc3[nH]ccc23)cn1 [Ruxolitinib] + CC(C)C[C@H](NC(=O)[C@H](Cc1ccccc1)NC(=O)c1cnccn1)B(O)O [Bortezomib] (partner 0.002 µM)
In short, it runs like this: as §1

NCI-H3122: the relative viability with VE-821 + Phenformin (first compound 0.08 µM) was determined as 0.394; with VE-821 + Phenformin (first compound 0.253 µM), 0.348; with VE-821 + Phenformin (first compound 0.8 µM), 0.354; in the test with VE-821 + Phenformin (first compound 2.53 µM), 0.349; in the test with VE-821 + Phenformin (first compound 8 µM), 0.332; with VE-821 + Crizotinib (first compound 0.08 µM), 0.283. For the same cell line, the relative viability with VE-821 + Crizotinib (first compound 0.253 µM) was found to be 0.281; in the test with VE-821 + Crizotinib (first compound 0.8 µM), 0.32; in the test with VE-821 + Crizotinib (first compound 2.53 µM), 0.356; with VE-821 + Crizotinib (first compound 8 µM), 0.331; in the test with Vismodegib + Dasatinib (first compound 0.08 µM) it was 0.871; with Vismodegib + Dasatinib (first compound 0.253 µM) it was 0.823. The relative viability turned out to be 0.811 with Vismodegib + Dasatinib (first compound 0.8 µM); 0.862 in the test with Vismodegib + Dasatinib (first compound 2.53 µM); 0.867 with Vismodegib + Dasatinib (first compound 8 µM); 1.02 in the test with Ruxolitinib + Bortezomib (first compound 0.08 µM); 0.986 with Ruxolitinib + Bortezomib (first compound 0.253 µM); 0.92 with Ruxolitinib + Bortezomib (first compound 0.8 µM). Moreover, the relative viability with Ruxolitinib + Bortezomib (first compound 2.53 µM) stood at 0.926; with Ruxolitinib + Bortezomib (first compound 8 µM), 0.873.
For PC-3 [JPC-3], the relative viability amounted to 0.455 with VE-821 + Phenformin (first compound 0.08 µM); 0.504 in the test with VE-821 + Phenformin (first compound 0.253 µM); 0.448 with VE-821 + Phenformin (first compound 0.8 µM); 0.469 with VE-821 + Phenformin (first compound 2.53 µM); 0.451 with VE-821 + Phenformin (first compound 8 µM); 1.06 in the test with VE-821 + Crizotinib (first compound 0.08 µM). Moreover, the relative viability in the test with VE-821 + Crizotinib (first compound 0.253 µM) was determined as 0.968; in the test with VE-821 + Crizotinib (first compound 0.8 µM), 1.1; with VE-821 + Crizotinib (first compound 2.53 µM), 0.98; with VE-821 + Crizotinib (first compound 8 µM) it was 0.963; with Vismodegib + Dasatinib (first compound 0.08 µM) it was 0.947; with Vismodegib + Dasatinib (first compound 0.253 µM), 0.985. For the same cell line, the relative viability was determined as 1.03 in the test with Vismodegib + Dasatinib (first compound 0.8 µM); 0.974 in the test with Vismodegib + Dasatinib (first compound 2.53 µM); 0.924 with Vismodegib + Dasatinib (first compound 8 µM); 0.63 in the test with Ruxolitinib + Bortezomib (first compound 0.08 µM); 0.819 in the test with Ruxolitinib + Bortezomib (first compound 0.253 µM); 0.738 with Ruxolitinib + Bortezomib (first compound 0.8 µM). Further, the relative viability with Ruxolitinib + Bortezomib (first compound 2.53 µM) came to 0.796; with Ruxolitinib + Bortezomib (first compound 8 µM) it was 0.7.
In the case of PC-14, the relative viability in the test with VE-821 + Phenformin (first compound 0.08 µM) was 0.648; with VE-821 + Phenformin (first compound 0.253 µM), 0.528; with VE-821 + Phenformin (first compound 0.8 µM) it was 0.675; with VE-821 + Phenformin (first compound 2.53 µM), 0.574; with VE-821 + Phenformin (first compound 8 µM) it was 0.449; with VE-821 + Crizotinib (first compound 0.08 µM) it was 1.06. For the same cell line, the relative viability in the test with VE-821 + Crizotinib (first compound 0.253 µM) was found to be 0.846; with VE-821 + Crizotinib (first compound 0.8 µM), 0.856; in the test with VE-821 + Crizotinib (first compound 2.53 µM), 0.916; with VE-821 + Crizotinib (first compound 8 µM) it was 0.877; with Vismodegib + Dasatinib (first compound 0.08 µM) it was 0.25; in the test with Vismodegib + Dasatinib (first compound 0.253 µM), 0.235. For the same cell line, the relative viability worked out at 0.27 in the test with Vismodegib + Dasatinib (first compound 0.8 µM); 0.225 with Vismodegib + Dasatinib (first compound 2.53 µM); 0.244 with Vismodegib + Dasatinib (first compound 8 µM); 0.969 with Ruxolitinib + Bortezomib (first compound 0.253 µM); 0.875 with Ruxolitinib + Bortezomib (first compound 0.8 µM); 0.789 in the test with Ruxolitinib + Bortezomib (first compound 2.53 µM). The relative viability with Ruxolitinib + Bortezomib (first compound 8 µM) turned out to be 0.603.
For the cell line RERF-LC-KJ, the relative viability with VE-821 + Phenformin (first compound 0.08 µM) was found to be 0.397; with VE-821 + Phenformin (first compound 0.253 µM), 0.361; in the test with VE-821 + Phenformin (first compound 0.8 µM), 0.377; with VE-821 + Phenformin (first compound 2.53 µM), 0.407; with VE-821 + Phenformin (first compound 8 µM), 0.41; in the test with VE-821 + Crizotinib (first compound 0.08 µM), 0.839. The relative viability is 0.806 with VE-821 + Crizotinib (first compound 0.253 µM); 0.775 with VE-821 + Crizotinib (first compound 0.8 µM); 0.701 with VE-821 + Crizotinib (first compound 2.53 µM); 0.693 with VE-821 + Crizotinib (first compound 8 µM); 0.779 with Vismodegib + Dasatinib (first compound 0.08 µM); 0.676 in the test with Vismodegib + Dasatinib (first compound 0.253 µM). Also, the relative viability in the test with Vismodegib + Dasatinib (first compound 0.8 µM) was found to be 0.75; in the test with Vismodegib + Dasatinib (first compound 2.53 µM) it was 0.758; in the test with Vismodegib + Dasatinib (first compound 8 µM), 0.768; in the test with Ruxolitinib + Bortezomib (first compound 0.08 µM), 1.09; in the test with Ruxolitinib + Bortezomib (first compound 0.253 µM), 1.11; in the test with Ruxolitinib + Bortezomib (first compound 0.8 µM), 1.2. Further, the relative viability with Ruxolitinib + Bortezomib (first compound 2.53 µM) was 1; with Ruxolitinib + Bortezomib (first compound 8 µM), 0.986.
For the cell line SK-LU-1, the relative viability with VE-821 + Phenformin (first compound 0.08 µM) is 0.675; in the test with VE-821 + Phenformin (first compound 0.253 µM), 0.528; with VE-821 + Phenformin (first compound 0.8 µM), 0.497; with VE-821 + Phenformin (first compound 2.53 µM), 0.383; in the test with VE-821 + Phenformin (first compound 8 µM) it was 0.216; in the test with VE-821 + Crizotinib (first compound 0.08 µM), 0.788. Moreover, the relative viability with VE-821 + Crizotinib (first compound 0.253 µM) came out at 0.863; with VE-821 + Crizotinib (first compound 0.8 µM) it was 0.884; in the test with VE-821 + Crizotinib (first compound 2.53 µM) it was 0.591; with VE-821 + Crizotinib (first compound 8 µM), 0.387; with Vismodegib + Dasatinib (first compound 0.08 µM), 0.211; with Vismodegib + Dasatinib (first compound 0.253 µM), 0.196. Also, the relative viability came out at 0.204 with Vismodegib + Dasatinib (first compound 0.8 µM); 0.211 in the test with Vismodegib + Dasatinib (first compound 2.53 µM); 0.211 in the test with Vismodegib + Dasatinib (first compound 8 µM); 0.465 in the test with Ruxolitinib + Bortezomib (first compound 0.08 µM); 1.07 in the test with Ruxolitinib + Bortezomib (first compound 0.253 µM); 1.3 with Ruxolitinib + Bortezomib (first compound 0.8 µM). For the same cell line, the relative viability with Ruxolitinib + Bortezomib (first compound 2.53 µM) came out at 1.03; in the test with Ruxolitinib + Bortezomib (first compound 8 µM) it was 0.936.
With SW 1573, the relative viability in the test with VE-821 + Phenformin (first compound 0.08 µM) amounted to 0.405; in the test with VE-821 + Phenformin (first compound 0.253 µM), 0.293; in the test with VE-821 + Phenformin (first compound 0.8 µM) it was 0.358; in the test with VE-821 + Phenformin (first compound 2.53 µM), 0.456; with VE-821 + Phenformin (first compound 8 µM), 0.162; with VE-821 + Crizotinib (first compound 0.08 µM) it was 0.944. The relative viability with VE-821 + Crizotinib (first compound 0.253 µM) was 0.675; in the test with VE-821 + Crizotinib (first compound 0.8 µM), 0.636; in the test with VE-821 + Crizotinib (first compound 2.53 µM), 0.963; in the test with VE-821 + Crizotinib (first compound 8 µM), 0.855; in the test with Vismodegib + Dasatinib (first compound 0.08 µM) it was 0.406; with Vismodegib + Dasatinib (first compound 0.253 µM), 0.44. For the same cell line, the relative viability in the test with Vismodegib + Dasatinib (first compound 0.8 µM) was determined as 0.389; in the test with Vismodegib + Dasatinib (first compound 2.53 µM), 0.447; with Vismodegib + Dasatinib (first compound 8 µM), 0.632; in the test with Ruxolitinib + Bortezomib (first compound 0.08 µM) it was 0.981; with Ruxolitinib + Bortezomib (first compound 0.253 µM) it was 1.04; with Ruxolitinib + Bortezomib (first compound 0.8 µM), 1.01. Also, the results for the relative viability with Ruxolitinib + Bortezomib (first compound 2.53 µM) and with Ruxolitinib + Bortezomib (first compound 8 µM) were 0.939 and 0.896, respectively.
